Several values for one entry are separate records, joined by “and”; a condition that tells them apart may be missing. Equal entries are not always repeated. Where two headings read alike, the source gives them in different places.
Assay: Total and unbound QST in tumor and contralateral brain at survival end point, orthotopic GB126 PDX
Format: in vivo
Conditions: for UNBOUND [QST], Brain / UNBOUND [QST], Plasma / UNBOUND [QST], Tumor: individual mice; for concentration at 3 h: athymic nude, mouse
Method: All mice included in the survival study were processed for end-point PK and PD analyses once moribund. Plasma, tumor, and contralateral brain tissues were harvested 3 hours after dosing with 10 mg/kg QST, allowing for direct comparison of long-term treatment with the PK-PD data collected from acute (1-week) treatment with QST or combination therapy (Figure 8A). […] There were no significant differences in total or unbound drug concentrations in tumor or brain tissue between the monotherapy or combination therapy cohorts (Figure 8, E and F). Immunoblot analysis of dissected tumor samples confirmed that QST induced substantial histone H3 hyperacetylation in brain tumors, compared with untreated animals, consistent with an in vivo on-target effect (Figure 9, A and B).
QST concentrations in specimens were measured using reverse-phase LC on the AB SCIEX QTRAP6500+ LC-MS/MS system by operating electrospray in the positive ion mode. For liquid chromatographic separation, gradient elution was performed using a Phenomenex Kinetex F5 100 Å column (100 × 2.1 mm, 2.6 μm). The initial composition of the mobile phase was 70% phase A (0.1% formic acid in water) and 30% phase B (0.1% formic acid in 1:1 acetonitrile/methanol) with a 0.35 mL/min flow rate. Gradient elution was achieved as follows: mobile phase (B) was maintained at 30% from 0 to 0.3 minutes, increased to 95% from 0.3 to 0.8 minutes, maintained at 95% from 0.8 to 2.5 minutes, and decreased to 30% from 2.5 to 2.8 minutes. The total run time was 3.5 minutes. The internal standard used in this study was D8-infigratinib. The retention times for QST and D8-infigratinib were 1.6 and 1.8 minutes, respectively. Mass-to-charge ratio transitions were as follows: 395.20 → 144.00 (QST) and 568.08 → 321.00 (D8-infigratinib). LC-MS/MS analysis was performed using an Analyst 1.7 Chromatographic Data System. See Supplemental Methods for detailed PK experiments.
Gy on MWF for a total of 6 Gy in the first week of treatment. Treatment groups included vehicle (50% PEG-3000), QST (10 mg/kg) alone, 6 Gy whole-brain IR treatment with vehicle, and 6 Gy whole-brain IR treatment with 10 mg/kg QST. QST was administered to mice through intraperitoneal injections two hours prior to whole-brain radiation treatment. Upon completion of the radiation regimen, IR-treated mice subsequently received QST or vehicle alone for the rest of the experiment. Tumor growth and treatment response was monitored by IVIS bioluminescence […]
once per week. […]
Tissue from the hemisphere contralateral to the tumor was also collected as a normal brain/nontumor reference sample. For PK analyses, the mice were anesthetized with isoflurane, and at least 300 μL of blood was drawn from the right ventricle of the heart. The blood was collected in tubes containing 10 μL of 0.1 M KOH in EDTA to prevent blood coagulation. Blood samples were immediately centrifuged at 3000 rpm for 10 minutes at 4 °C to allow separation of plasma. After collection of the blood, the tumor was dissected out of the brain and flash -frozen.
Both plasma and erythrocytes were flash-frozen for subsequent analysis. […]
vortex-mixed for 10 s and centrifuged at 12000 g at 4 °C for 10 min. A 100-µL aliquot of the supernatant was transferred to an autosampler vial, and 5 µL was injected into the LC-MS/MS system for analysis. Whenever necessary, appropriate dilutions were made to accommodate the analysis of small volume samples.
Brain and Brain Tumor Sample Preparation
Normal brain and brain tumor tissue homogenates were prepared by 1:4 (mass/volume) ratio with PBS. Samples were homogenized under 6.00 m/s speed for 40 seconds with 3 cycles by Bead Ruptor Elite homogenizer (Omni International). Plasma was used as a surrogate matrix for brain/tumor homogenate. Brain homogenate samples from in vivo studies were prepared as described for plasma samples. Analyte and IS were extracted by protein precipitation with methanol containing IS. After centrifugation at 12000 rpm for 10 minutes at 4 °C, 5 µL of […]

Cn1cc(CNCC2CCN(c3ncc(C(=O)NO)cn3)CC2)c2ccccc21 [QST, quisinostat]
UNBOUND [QST], Brain (Combination (QST + IR) cohort): 3.62 nM and 1.48 nM and 2.18 nM | UNBOUND [QST], Plasma (Combination (QST + IR) cohort): 158.39 nM and 19.58 nM and 43.86 nM | UNBOUND [QST], Tumor (Combination (QST + IR) cohort): 66.7 nM and 35.51 nM and 128.5 nM and 21.89 nM and 23.43 nM | UNBOUND [QST], Brain (QST cohort): 1.049 nM and 4.404 nM and 6.584 nM and 1.529 nM | UNBOUND [QST], Plasma (QST cohort): 35.734 nM and 100.413 nM and 74.395 nM and 209.24 nM | UNBOUND [QST], Tumor (QST cohort): 93.34 nM and 77.02 nM and 33.36 nM and 81.88 nM | concentration at 3 h (brain (contralateral to tumor), intraperitoneal, 10 mg/kg, Combo cohort, mean, read-out: Total QST, Brain, Mean): 48.5 nM | concentration at 3 h (brain (contralateral to tumor), intraperitoneal, 10 mg/kg, Combo cohort, mean, read-out: Unbound QST, Brain, Mean): 2.42 nM | concentration at 3 h (brain (contralateral to tumor), intraperitoneal, 10 mg/kg, QST cohort, mean, read-out: Total QST, Brain, Mean): 67.8 nM | concentration at 3 h (brain (contralateral to tumor), intraperitoneal, 10 mg/kg, QST cohort, mean, read-out: Unbound QST, Brain, Mean): 3.39 nM | concentration at 3 h (in vivo, orthotopic GB126, end point (moribund), 3 hours after 10 mg/kg, read-out: unbound QST in tumors, mean): 71.4 nM | concentration at 3 h (peritumoral (contralateral) brain tissue, intraperitoneal, 10 mg/kg, orthotopic GB126, end point (moribund), 3 hours after 10 mg/kg, read-out: unbound QST in peritumoral brain tissue, mean): 3.4 nM | concentration at 3 h (plasma, intraperitoneal, 10 mg/kg, Combo cohort, mean, read-out: Total QST, Plasma, Mean): 141 nM | concentration at 3 h (plasma, intraperitoneal, 10 mg/kg, Combo cohort, mean, read-out: Unbound QST, Plasma, Mean): 55.7 nM | concentration at 3 h (plasma, intraperitoneal, 10 mg/kg, QST cohort, mean, read-out: Total QST, Plasma, Mean): 265 nM | concentration at 3 h (plasma, intraperitoneal, 10 mg/kg, QST cohort, mean, read-out: Unbound QST, Plasma, Mean): 105 nM | concentration at 3 h (tumor, intraperitoneal, 10 mg/kg, Combo cohort, mean, read-out: Total QST, Tumor, Mean): 1100 nM | concentration at 3 h (tumor, intraperitoneal, 10 mg/kg, Combo cohort, mean, read-out: Unbound QST, Tumor, Mean): 55.2 nM | concentration at 3 h (tumor, intraperitoneal, 10 mg/kg, QST cohort, mean, read-out: Total QST, Tumor, Mean): 1430 nM | concentration at 3 h (tumor, intraperitoneal, 10 mg/kg, QST cohort, mean, read-out: Unbound QST, Tumor, Mean): 71.4 nM
